Reference: patent publication US12448388B2, “PRMT5 inhibitors and uses thereof” (Gilead Sciences, Inc., priority 2023, dated 2025)
Where two headings read alike, the source gives them in different places.

How the values were obtained:
[1] = tested on: Symmetric Di-methyl Arginine (SDMA) signal (PRMT5 inhibition) in HCT116 MTAP-deleted cells; test: Symmetric di-methyl arginine image-based high content screen assay (SDMA assay), HCT116 MTAP-deleted; format: cell-based; settings: for EC50: Homo sapiens, HCT-116, HCT116 MTAP-deleted, class symbols
Procedure, shortened: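 HCT116 WT and MTAP-deleted cells (800/well, RPMI 1640 + 10% FBS) treated with compound 3 days at 37 °C; formalin-fixed, stained with anti-SDMA antibody/Alexa 488 plus DAPI. Mean SDMA intensity per DAPI-defined cell imaged; EC50 from 4-parameter logistic fit.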

[2] = tested on: HCT116 MTAP-deleted cell lines; test: Cell viability assay (CellTiter-Glo, 7 days), HCT116 MTAP-deleted; format: cell-based; settings: Homo sapiens, HCT-116, HCT116 MTAP-deleted, class symbols, read-out: CC50
Procedure, shortened: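 PRMT5 inhibitors were serially diluted in DMSO and acoustically spotted as dose-response series into plates before cell seeding. Cells were grown with compound for 7 days at 37 °C, 5% CO2, 90% humidity, then viability was read by CellTiter-Glo luminescence and reported as CC50.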

[3] = HCT116 WT versus HCT116 MTAP-deleted
[4] = HCT116 WT vs HCT116 MTAP-deleted

Row | EC50 selectivity [1, 3] | EC50 [1] [nM] | EC50 selectivity [1, 4] | Compound | CC50 ([2]; cell viability) [nM] | CC50 ([2]; cell viability assay) [nM]
1 | 64 | 1 to 5 | – | C[C@@H]1CN(C(=O)c2cc3c(cc2F)nc(N)c2cncn23)[C@H]2c3ccc(Br)c(F)c3C[C@H]2O1 (single isomer, unassigned) [Ff-163] | < 100 | –
2 | – | ≤ 1 | 69 | C[C@H]1C[C@@H]2Oc3cc(OC(F)(F)F)ccc3[C@@H]2N(C(=O)c2cc3c(cn2)nc(N)c2cncn23)C1 [Fg-54, (4-aminoimidazo[1,5-a]pyrido[3,4-e]pyrazin-8-yl)((3S,4aS,9bS)-3-methyl-7-(trifluoromethoxy)-3,4,4a,9b-tetrahydrobenzofuro[3,2-b]pyridin-1(2H)-yl)methanone] | – | < 100
3 | – | > 5 | 27 | Cc1ncn2c1c(N)nc1cnc(C(=O)N3C[C@H](C)C[C@@H]4Oc5cc(C(F)(F)F)ccc5[C@@H]43)cc12 [Ff-624, (4-amino-3-methylimidazo[1,5-a]pyrido[3,4-e]pyrazin-8-yl)((3R,4aS,9bS)-3-methyl-7-(trifluoromethyl)-3,4,4a,9b-tetrahydrobenzofuro[3,2-b]pyridin-1(2H)-yl)methanone] | – | 100 to 1000
4 | – | ≤ 1 | 59 | C[C@H]1C[C@@H]2Oc3cc(C(F)(F)F)ccc3[C@@H]2N(C(=O)c2ccc3nc(N)c4cncn4c3c2)C1 (single isomer, unassigned) [Ff-689] | – | < 100
5 | 48 | 1 to 5 | – | Nc1nc2ccc(C(=O)N(Cc3ccc(C(F)(F)F)cn3)N3CCOCC3)cc2n2cncc12 [Fb-2, 4-amino-N-morpholino-N-((5-(trifluoromethyl)pyridin-2-yl)methyl)imidazo[1,5-a]quinoxaline-8-carboxamide] | < 100 | –
6 | – | ≤ 1 | 171 | Nc1nc2cc(F)c(C(=O)N3CC[C@H]4C[C@@H]3c3ccc(C(F)(F)F)c(F)c3O4)cc2n2cncc12 [Ff-634, (4-amino-7-fluoroimidazo[1,5-a]quinoxalin-8-yl)((2S,6R)-10-fluoro-9-(trifluoromethyl)-3,4-dihydro-2H-2,6-methanobenzo[b][1,5]oxazocin-5(6H)-yl)methanone] | – | < 100
7 | – | ≤ 1 | 115 | Nc1nc2cc(F)c(C(=O)N3CCC[C@@H]4Oc5c(ccc(C(F)(F)F)c5F)[C@@H]43)cc2n2cncc12 [Ff-501, (4-amino-7-fluoroimidazo[1,5-a]quinoxalin-8-yl)((4aS,9bS)-6-fluoro-7-(trifluoromethyl)-3,4,4a,9b-tetrahydrobenzofuro[3,2-b]pyridin-1(2H)-yl)methanone] | – | < 100
8 | 42 | 1 to 5 | – | Nc1nc2cc(F)c(C(=O)N3CCCC4OCc5nc(C(F)(F)F)ccc5[C@@H]43)cc2n2cncc12 (mixture of isomers) [Ff-319, Rac-(4-amino-7-fluoroimidazo[1,5-a]quinoxalin-8-yl)((4aS,10bS)-8-(trifluoromethyl)-2,3,4,4a,6,10b-hexahydro-1H-pyrano[3,2-b:5,4-b′]dipyridin-1-yl)methanone] | < 100 | –
9 | 54 | 1 to 5 | – | Nc1nc2ccc(C(=O)N(Cc3ccc(C(F)(F)F)cn3)N3CCCC3=O)cc2n2cncc12 [Fd-1, 4-amino-N-(2-oxopyrrolidin-1-yl)-N-((5-(trifluoromethyl)pyridin-2-yl)methyl)imidazo[1,5-a]quinoxaline-8-carboxamide] | 100 to 1000 | –
10 | 390 | > 5 | – | CC(=O)N(C)N(Cc1nc2cc(Cl)ccc2s1)C(=O)c1ccc2nc(N)c3cnc(C)n3c2c1 [Fb-6, N′-acetyl-4-amino-N-((5-chlorobenzo[d]thiazol-2-yl)methyl)-N′,1-dimethylimidazo[1,5-a]quinoxaline-8-carbohydrazide] | 100 to 1000 | –
11 | 431 | 1 to 5 | – | CC(=O)N(C)N(Cc1ccc(OC(F)F)cc1F)C(=O)c1ccc2nc(N)c3cnc(C)n3c2c1 [Fc-2, N′-acetyl-4-amino-N-(4-(difluoromethoxy)-2-fluorobenzyl)-N′,1-dimethylimidazo[1,5-a]quinoxaline-8-carbohydrazide] | 100 to 1000 | –
12 | 73 | 1 to 5 | – | COc1ccc2c(c1)CO[C@H]1CCCN(C(=O)c3cc4c(cc3F)nc(N)c3cncn34)[C@@H]21 (racemic) [Ff-44, Rac-(4-amino-7-fluoroimidazo[1,5-a]quinoxalin-8-yl)((cis)-8-methoxy-2,3,4,4a,6,10b-hexahydro-1H-isochromeno[4,3-b]pyridin-1-yl)methanone] | < 100 | –
13 | – | 1 to 5 | 158 | Cc1nc(C)n2c1c(N)nc1ccc(C(=O)N(C)[C@@H]3COCc4cc(Br)ccc43)cc12 [Fg-14, (S)-4-amino-N-(7-bromoisochroman-4-yl)-N,1,3-trimethylimidazo[1,5-a]quinoxaline-8-carboxamide] | – | 100 to 1000
14 | 22 | > 5 | – | Nc1nc2ccc(C(=O)N(Cc3ccc(C(F)(F)F)cn3)N3CCOCC3)cc2c2cncn12 [Fa-3, 5-amino-N-morpholino-N-((5-(trifluoromethyl)pyridin-2-yl)methyl)imidazo[1,5-c]quinazoline-9-carboxamide] | > 1000 | –

More lines, now with the values behind:

Row | Compound | EC50 selectivity [1, 3] | EC50 [1] [nM] | EC50 selectivity [1, 4] | CC50 ([2]; cell viability) [nM] | CC50 ([2]; cell viability assay) [nM]
15 | Nc1nc2cc(F)c(C(=O)N3CCC(c4ccc(C(F)(F)F)cc4F)C3)cc2n2cncc12 (stereo not drawn) [Ff-4, (4-amino-7-fluoroimidazo[1,5-a]quinoxalin-8-yl)(3-(2-fluoro-4-(trifluoromethyl)phenyl)pyrrolidin-1-yl)methanone] | 2956 | > 5 | – | 100 to 1000 | –
16 | Nc1nc2cnc(C(=O)N3CCC[C@@H]4Oc5cc(OC(F)(F)F)c(F)cc5[C@@H]43)cc2n2cncc12 [Ff-378, (4-aminoimidazo[1,5-a]pyrido[3,4-e]pyrazin-8-yl)((4aS,9bS)-8-fluoro-7-(trifluoromethoxy)-3,4,4a,9b-tetrahydrobenzofuro[3,2-b]pyridin-1(2H)-yl)methanone] | – | ≤ 1 | 106 | – | < 100
17 | CN(Cc1cccc2ccoc12)C(=O)c1ccc2nc(N)c3cncn3c2c1 [Ff-5, 4-amino-N-(benzofuran-7-ylmethyl)-N-methylimidazo[1,5-a]quinoxaline-8-carboxamide] | 334 | > 5 | – | > 1000 | –
18 | Cc1ncn2c1c(N)nc1ccc(C(=O)N(C)[C@@H]3COCc4cc(Br)ccc43)cc12 [Fg-13, (S)-4-amino-N-(7-bromoisochroman-4-yl)-N,3-dimethylimidazo[1,5-a]quinoxaline-8-carboxamide] | – | ≤ 1 | 207 | – | < 100
19 | Nc1nc2cc(F)c(C(=O)N3CCC[C@@H]4Oc5cc(-c6cnn(C(F)F)c6)ccc5[C@@H]43)cc2n2cncc12 [Ff-661, (4-amino-7-fluoroimidazo[1,5-a]quinoxalin-8-yl)((4aS,9bS)-7-(1-(difluoromethyl)-1H-pyrazol-4-yl)-3,4,4a,9b-tetrahydrobenzofuro[3,2-b]pyridin-1(2H)-yl)methanone] | – | ≤ 1 | 147 | – | < 100
20 | Nc1nc2cnc(C(=O)N3CCC[C@@H]4Oc5cc(C(F)(F)F)ccc5[C@@H]43)cc2n2cnc(F)c12 (single isomer, unassigned) [Ff-626] | – | 1 to 5 | 143 | – | < 100
21 | [2H]C1([2H])CC[C@@H]2Oc3cc(C(F)(F)F)ccc3[C@@H]2N1C(=O)c1ccc2nc(N)c3cncn3c2c1 [Ff-643, (4-aminoimidazo[1,5-a]quinoxalin-8-yl)((4aS,9bS)-7-(trifluoromethyl)-3,4,4a,9b-tetrahydrobenzofuro[3,2-b]pyridin-1(2H)-yl-2,2-d2)methanone] | – | ≤ 1 | 155 | – | < 100
22 | C#Cc1cc2nc(N)c3cncn3c2cc1C(=O)N(C)[C@@H]1COc2cc(C(F)(F)F)ccc21 [Fg-49, (S)-4-amino-7-ethynyl-N-methyl-N-(6-(trifluoromethyl)-2,3-dihydrobenzofuran-3-yl)imidazo[1,5-a]quinoxaline-8-carboxamide] | – | ≤ 1 | 70 | – | < 100
23 | CC(=O)N(C)N(Cc1ccc(C(F)(F)F)cn1)C(=O)c1ccc2nc(N)n3cncc3c2c1 [Fa-1, N′-acetyl-5-amino-N′-methyl-N-((5-(trifluoromethyl)pyridin-2-yl)methyl)imidazo[1,5-c]quinazoline-9-carbohydrazide] | 152 | > 5 | – | > 1000 | –
24 | CN(C(=O)c1cc2c(cc1F)nc(N)c1cncn12)[C@@H]1COc2cc(-n3cnc(C(F)(F)F)c3)ccc21 [Ff-325, (S)-4-amino-7-fluoro-N-methyl-N-(6-(4-(trifluoromethyl)-1H-imidazol-1-yl)-2,3-dihydrobenzofuran-3-yl)imidazo[1,5-a]quinoxaline-8-carboxamide] | 447 | ≤ 1 | – | < 100 | –
25 | Nc1nc2cc(F)c(C(=O)N3CCC[C@@H]4OCc5cc(OC(F)F)ccc5[C@@H]43)cc2n2cncc12 (single isomer, unassigned) [Ff-392] | – | ≤ 1 | 68 | – | < 100
26 | Cc1ncc2c(N)nc3ccc(C(=O)N(C)[C@@H]4COc5cc(C#CC6(O)CC6)ccc54)cc3n12 [Ff-19, (S)-4-amino-N-(6-((1-hydroxycyclopropyl)ethynyl)-2,3-dihydrobenzofuran-3-yl)-N,1-dimethylimidazo[1,5-a]quinoxaline-8-carboxamide] | 129 | > 5 | – | 100 to 1000 | –
